# Results reported in the supplement of paper PMC10307832.
# Tests used:
# Assay in all cases: relative viability (nuclei count vs DMSO), 5 days (fraction); higher = more cells survive
# [1] = tested on: COR-L23
# Summary of the method: (§1)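 Cells from lung cancer lines were seeded into 1536-well plates and, one day later, dosed by pin tool. Treatments were either a single drug or a fixed dose of an anchor drug with five library-drug doses (not always all listed) in √10 steps. After 5 days, nuclei were stained in a one-step fixation (final 0.05% Triton X-100, 1% formaldehyde, 1 ug/ml Hoechst) and counted on 4× images, and relative viability is the treated-to-vehicle nuclei ratio, as the median of duplicate plates.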
# [2] = tested on: ChaGo-K-1
# Summary of the method: as §1
# [3] = tested on: EPLC-272H
# Summary of the method: as §1
# [4] = tested on: HCC-15
# Summary of the method: as §1
# [5] = tested on: HCC-366
# Summary of the method: as §1
# [6] = tested on: HCC-44
# Summary of the method: as §1
# [7] = tested on: HCC-827
# Summary of the method: as §1
# [8] = tested on: NCI-H1355
# Summary of the method: as §1
# [9] = tested on: NCI-H1734
# Summary of the method: as §1
# [10] = tested on: NCI-H1793
# Summary of the method: as §1
# [11] = tested on: NCI-H1944
# Summary of the method: as §1
# [12] = tested on: NCI-H2009
# Summary of the method: as §1
# [13] = tested on: NCI-H2023
# Summary of the method: as §1
# [14] = tested on: NCI-H2085
# Summary of the method: as §1
# [15] = tested on: NCI-H2228
# Summary of the method: as §1
# [16] = tested on: NCI-H2347
# Summary of the method: as §1
# [17] = tested on: NCI-H2405
# Summary of the method: as §1
# [18] = tested on: NCI-H3122
# Summary of the method: as §1
# [19] = tested on: PC-14
# Summary of the method: as §1
# [20] = tested on: SW 1573
# Summary of the method: as §1
smiles,measurement,setting,value
CN1CCN(CCOc2cc(OC3CCOCC3)c3c(Nc4c(Cl)ccc5c4OCO5)ncnc3c2)CC1 [Saracatinib] + CC1(C)CCC(c2ccc(Cl)cc2)=C(CN2CCN(c3ccc(C(=O)NS(=O)(=O)c4ccc(N[C@H](CCN5CCOCC5)CSc5ccccc5)c(S(=O)(=O)C(F)(F)F)c4)cc3)CC2)C1 [Navitoclax] (partner 0.5 µM),relative viability,[1]; first compound 0.02 µM,1.1
same,relative viability,[1]; first compound 0.2 µM,0.966
same,relative viability,[1]; first compound 0.6325 µM,0.923
same,relative viability,[1]; first compound 2 µM,0.933
same,relative viability,[2]; first compound 0.02 µM,1.15
same,relative viability,[2]; first compound 0.2 µM,0.68
same,relative viability,[2]; first compound 0.6325 µM,1.21
same,relative viability,[2]; first compound 2 µM,0.542
same,relative viability,[3]; first compound 0.02 µM,1.19
same,relative viability,[3]; first compound 0.2 µM,0.976
same,relative viability,[3]; first compound 0.6325 µM,1.19
same,relative viability,[3]; first compound 2 µM,0.999
same,relative viability,[4]; first compound 0.02 µM,0.655
same,relative viability,[4]; first compound 0.2 µM,0.545
same,relative viability,[4]; first compound 0.6325 µM,0.65
same,relative viability,[4]; first compound 2 µM,0.558
same,relative viability,[5]; first compound 0.02 µM,1.03
same,relative viability,[5]; first compound 0.6325 µM,1.08
same,relative viability,[5]; first compound 2 µM,0.7
same,relative viability,[6]; first compound 0.02 µM,1.06
same,relative viability,[6]; first compound 0.2 µM,0.829
same,relative viability,[6]; first compound 0.6325 µM,1.08
same,relative viability,[6]; first compound 2 µM,1.04
same,relative viability,[7]; first compound 0.02 µM,0.979
same,relative viability,[7]; first compound 0.2 µM,0.808
same,relative viability,[7]; first compound 0.6325 µM,0.368
same,relative viability,[7]; first compound 2 µM,0.137
same,relative viability,[8]; first compound 0.02 µM,0.988
same,relative viability,[8]; first compound 0.2 µM,0.895
same,relative viability,[8]; first compound 0.6325 µM,0.928
same,relative viability,[8]; first compound 2 µM,0.901
same,relative viability,[9]; first compound 0.02 µM,0.854
same,relative viability,[9]; first compound 0.6325 µM,0.767
same,relative viability,[9]; first compound 2 µM,0.697
same,relative viability,[10]; first compound 0.02 µM,0.456
same,relative viability,[10]; first compound 0.2 µM,0.402
same,relative viability,[10]; first compound 0.6325 µM,0.401
same,relative viability,[10]; first compound 2 µM,0.201
same,relative viability,[11]; first compound 0.02 µM,1.14
same,relative viability,[11]; first compound 0.6325 µM,0.974
same,relative viability,[11]; first compound 2 µM,0.718
same,relative viability,[12]; first compound 0.02 µM,1.15
same,relative viability,[12]; first compound 0.2 µM,1.07
same,relative viability,[12]; first compound 0.6325 µM,1.15
same,relative viability,[12]; first compound 2 µM,1.16
same,relative viability,[13]; first compound 0.02 µM,1.04
same,relative viability,[13]; first compound 0.2 µM,0.808
same,relative viability,[13]; first compound 0.6325 µM,1.02
same,relative viability,[13]; first compound 2 µM,0.987
same,relative viability,[14]; first compound 0.02 µM,1.12
same,relative viability,[14]; first compound 0.2 µM,1.05
same,relative viability,[14]; first compound 0.6325 µM,1.19
same,relative viability,[14]; first compound 2 µM,1.07
same,relative viability,[15]; first compound 0.02 µM,1.29
same,relative viability,[15]; first compound 0.2 µM,0.831
same,relative viability,[15]; first compound 0.6325 µM,1.24
same,relative viability,[15]; first compound 2 µM,0.459
same,relative viability,[16]; first compound 0.02 µM,0.725
same,relative viability,[16]; first compound 0.2 µM,0.686
same,relative viability,[16]; first compound 0.6325 µM,0.862
same,relative viability,[16]; first compound 2 µM,0.599
same,relative viability,[17]; first compound 0.02 µM,0.816
same,relative viability,[17]; first compound 0.2 µM,0.874
same,relative viability,[17]; first compound 0.6325 µM,0.401
same,relative viability,[17]; first compound 2 µM,0.316
same,relative viability,[18]; first compound 0.02 µM,1.02
same,relative viability,[18]; first compound 0.6325 µM,0.942
same,relative viability,[18]; first compound 2 µM,0.838
same,relative viability,[19]; first compound 0.02 µM,1.01
same,relative viability,[19]; first compound 0.2 µM,1.01
same,relative viability,[19]; first compound 0.6325 µM,0.417
same,relative viability,[19]; first compound 2 µM,0.198
same,relative viability,[20]; first compound 0.02 µM,0.958
same,relative viability,[20]; first compound 0.2 µM,0.969
same,relative viability,[20]; first compound 0.6325 µM,0.919
same,relative viability,[20]; first compound 2 µM,0.838
CCNC(=O)c1noc(-c2cc(C(C)C)c(O)cc2O)c1-c1ccc(CN2CCOCC2)cc1 [Luminespib] + CC1(C)CCC(c2ccc(Cl)cc2)=C(CN2CCN(c3ccc(C(=O)NS(=O)(=O)c4ccc(N[C@H](CCN5CCOCC5)CSc5ccccc5)c(S(=O)(=O)C(F)(F)F)c4)cc3)CC2)C1 [Navitoclax] (partner 0.5 µM),relative viability,[1]; first compound 0.002 µM,1.14
same,relative viability,[1]; first compound 0.006325 µM,0.885
same,relative viability,[1]; first compound 0.02 µM,1
same,relative viability,[1]; first compound 0.06325 µM,0.0758
same,relative viability,[1]; first compound 0.2 µM,0.0617
same,relative viability,[2]; first compound 0.002 µM,1.1
same,relative viability,[2]; first compound 0.02 µM,0.932
same,relative viability,[2]; first compound 0.06325 µM,0.41
same,relative viability,[2]; first compound 0.2 µM,0.311
same,relative viability,[3]; first compound 0.006325 µM,0.831
same,relative viability,[3]; first compound 0.02 µM,0.782
same,relative viability,[3]; first compound 0.06325 µM,1.11
same,relative viability,[3]; first compound 0.2 µM,1.28
same,relative viability,[4]; first compound 0.002 µM,0.647
same,relative viability,[4]; first compound 0.006325 µM,0.708
same,relative viability,[4]; first compound 0.02 µM,0.755
same,relative viability,[4]; first compound 0.06325 µM,0.44
same,relative viability,[4]; first compound 0.2 µM,0.419
same,relative viability,[5]; first compound 0.002 µM,1.11
same,relative viability,[5]; first compound 0.006325 µM,0.981
same,relative viability,[5]; first compound 0.02 µM,0.966
same,relative viability,[5]; first compound 0.06325 µM,0.0276
same,relative viability,[5]; first compound 0.2 µM,0.0215
same,relative viability,[6]; first compound 0.002 µM,0.943
same,relative viability,[6]; first compound 0.006325 µM,0.99
same,relative viability,[6]; first compound 0.02 µM,1.18
same,relative viability,[6]; first compound 0.06325 µM,0.957
same,relative viability,[6]; first compound 0.2 µM,0.129
same,relative viability,[7]; first compound 0.002 µM,1.07
same,relative viability,[7]; first compound 0.006325 µM,1.02
same,relative viability,[7]; first compound 0.02 µM,1.04
same,relative viability,[7]; first compound 0.06325 µM,1.01
same,relative viability,[7]; first compound 0.2 µM,1
same,relative viability,[8]; first compound 0.002 µM,0.983
same,relative viability,[8]; first compound 0.006325 µM,0.896
same,relative viability,[8]; first compound 0.02 µM,0.473
same,relative viability,[8]; first compound 0.06325 µM,0.987
same,relative viability,[8]; first compound 0.2 µM,0.968
same,relative viability,[9]; first compound 0.002 µM,0.878
same,relative viability,[9]; first compound 0.006325 µM,0.698
same,relative viability,[9]; first compound 0.02 µM,0.777
same,relative viability,[9]; first compound 0.06325 µM,0.172
same,relative viability,[9]; first compound 0.2 µM,0.122
same,relative viability,[10]; first compound 0.002 µM,0.517
same,relative viability,[10]; first compound 0.006325 µM,0.374
same,relative viability,[10]; first compound 0.02 µM,0.293
same,relative viability,[10]; first compound 0.06325 µM,0.137
same,relative viability,[10]; first compound 0.2 µM,0.122
same,relative viability,[11]; first compound 0.002 µM,1.06
same,relative viability,[11]; first compound 0.006325 µM,0.99
same,relative viability,[11]; first compound 0.02 µM,0.708
same,relative viability,[11]; first compound 0.06325 µM,0.939
same,relative viability,[11]; first compound 0.2 µM,0.973
same,relative viability,[12]; first compound 0.002 µM,1.17
same,relative viability,[12]; first compound 0.006325 µM,1.08
same,relative viability,[12]; first compound 0.02 µM,1.21
same,relative viability,[12]; first compound 0.06325 µM,0.72
same,relative viability,[12]; first compound 0.2 µM,0.0895
same,relative viability,[13]; first compound 0.002 µM,0.969
same,relative viability,[13]; first compound 0.006325 µM,1.11
same,relative viability,[13]; first compound 0.02 µM,0.99
same,relative viability,[13]; first compound 0.06325 µM,0.0933
same,relative viability,[13]; first compound 0.2 µM,0.0995
same,relative viability,[14]; first compound 0.002 µM,1.15
same,relative viability,[14]; first compound 0.006325 µM,1.13
same,relative viability,[14]; first compound 0.02 µM,1.14
same,relative viability,[14]; first compound 0.06325 µM,0.677
same,relative viability,[14]; first compound 0.2 µM,0.503
same,relative viability,[15]; first compound 0.002 µM,0.836
same,relative viability,[15]; first compound 0.006325 µM,0.637
same,relative viability,[15]; first compound 0.02 µM,0.614
same,relative viability,[15]; first compound 0.06325 µM,0.11
same,relative viability,[15]; first compound 0.2 µM,0.144
same,relative viability,[16]; first compound 0.002 µM,0.794
same,relative viability,[16]; first compound 0.02 µM,0.483
same,relative viability,[16]; first compound 0.06325 µM,0.764
same,relative viability,[16]; first compound 0.2 µM,0.275
same,relative viability,[17]; first compound 0.002 µM,0.925
same,relative viability,[17]; first compound 0.006325 µM,0.583
same,relative viability,[17]; first compound 0.02 µM,0.704
same,relative viability,[17]; first compound 0.06325 µM,0.188
same,relative viability,[17]; first compound 0.2 µM,0.143
same,relative viability,[18]; first compound 0.002 µM,1.03
same,relative viability,[18]; first compound 0.006325 µM,0.956
same,relative viability,[18]; first compound 0.02 µM,1.05
same,relative viability,[18]; first compound 0.06325 µM,0.919
same,relative viability,[18]; first compound 0.2 µM,0.196
same,relative viability,[19]; first compound 0.002 µM,0.996
same,relative viability,[19]; first compound 0.006325 µM,0.945
same,relative viability,[19]; first compound 0.02 µM,1.17
same,relative viability,[19]; first compound 0.06325 µM,0.0977
same,relative viability,[19]; first compound 0.2 µM,0.128
same,relative viability,[20]; first compound 0.002 µM,0.927
same,relative viability,[20]; first compound 0.006325 µM,0.892
same,relative viability,[20]; first compound 0.02 µM,0.803
same,relative viability,[20]; first compound 0.06325 µM,0.0809
same,relative viability,[20]; first compound 0.2 µM,0.0666
